Laboratory results from Sander's compilation of Henry's law constants (doi:10.1021/je025545i).

Assay: Henry solubility constant Hcp at 298.15 K (mol/(m3 Pa))
Settings: reference: Destaillats and Charles (2002)

SMILES	Henry solubility constant Hcp
CC=NOCc1c(F)c(F)c(F)c(F)c1F [PFBHA-ethanal]	0.019
Cc1ccccc1 [methylbenzene]	0.002
c1ccc2ccccc2c1 [naphthalene]	0.024
CCCCC/C=N/OCc1c(F)c(F)c(F)c(F)c1F [PFBHA-hexanal]	0.0058
Fc1c(F)c(F)c(CO/N=C/c2ccccc2)c(F)c1F [PFBHA-benzaldehyde]	0.005
C/C=C/C=N/OCc1c(F)c(F)c(F)c(F)c1F [PFBHA-crotonaldehyde]	0.0068
C=C/C=N/OCc1c(F)c(F)c(F)c(F)c1F [PFBHA-propenal]	0.0095
CCCCCCC/C=N/OCc1c(F)c(F)c(F)c(F)c1F [PFBHA-octanal]	0.0079
CCCCCCCCC/C=N/OCc1c(F)c(F)c(F)c(F)c1F [PFBHA-decanal]	0.024
CC/C(C)=N\OCc1c(F)c(F)c(F)c(F)c1F [PFBHA-butanone]	0.0047
Fc1c(F)c(F)c(CON=CC=NOCc2c(F)c(F)c(F)c(F)c2F)c(F)c1F [PFBHA-ethanedial]	0.016
c1ccc(-c2ccccc2)cc1 [biphenyl]	0.034
CC(C)=NOCc1c(F)c(F)c(F)c(F)c1F [PFBHA-propanone]	0.011
C=NOCc1c(F)c(F)c(F)c(F)c1F [PFBHA-methanal]	0.016
